Results taken from ChEMBL document CHEMBL5325501, “Discovery of BWA-522, a First-in-Class and Orally Bioavailable PROTAC Degrader of the Androgen Receptor Targeting N-Terminal Domain for the Treatment of Prostate Cancer” (J Med Chem, 2023).
Active and inactive are the calls of the source. The rule behind the calls is not given here.

Key:
[1] = Metabolic stability in mouse liver microsomes assessed as parent compound remaining at 2 uM preincubated for 10 mins in the presence of NADPH followed by compound addition and measured after 60 mins by LC-MS/MS analysis; format: ADME, Microsome; conditions: read-out: Stability
[2] = Downregulation of PSA protein level in human LNCaP cells at 10 uM incubated for 48 hrs by Western blot analysis relative to control; format: functional
LNCaP [3] = assay: Antitumor activity against human LNCaP cells xenografted in NOD SCID mouse assessed as reduction in tumor weight at 20 to 60 mg/kg, po administered daily for 4 weeks; format: functional, organism-based; conditions: dose 20-60 mg/kg
[4] = Toxicity in ICR mouse assessed as testicle damage at 20 to 60 mg/kg, po administered daily for 14 days; format: organism-based; conditions: in vivo, 336 h, dose 20-60 mg/kg, time 14 day
CWR22R = assay: Antiproliferative activity against AR-dependent human 22Rv1 cells assessed as reduction in cell viability at 3 to 10 uM incubated for 6 days by CCK-8 assay; format: functional, cell-based; conditions: dose 3-10 µM, time 6.0 day
[5] = Stability in mouse plasma assessed as parent compound remaining measured immediately by LC-MS/MS analysis; format: ADME, cell-free; conditions: read-out: Stability
[6] = Cmax in beagle dog at 1 mg/kg, iv measured by LC-MS/MS analysis; format: ADME, organism-based, Canis lupus familiaris; design: dose 1 mg/kg, route iv; conditions: in vivo
[7] = Clearance in ICR mouse at 2 mg/kg, iv measured by LC-MS/MS analysis; format: ADME, organism-based; conditions: in vivo
[8] = Toxicity in ICR mouse assessed as lung damage at 20 to 60 mg/kg, po administered daily for 14 days; format: organism-based; conditions: in vivo, 336 h, dose 20-60 mg/kg, time 14 day
[9] = Toxicity in ICR mouse assessed as heart damage at 20 to 60 mg/kg, po administered daily for 14 days; format: organism-based; conditions: in vivo, 336 h, dose 20-60 mg/kg, time 14 day
[10] = Metabolic stability in human liver microsomes assessed as half-life at 2 uM preincubated for 10 mins in the presence of NADPH followed by compound addition and measured after 60 mins by LC-MS/MS analysis; format: ADME, Microsome
[11] = Stability in mouse plasma assessed as parent compound remaining measured after 15 mins by LC-MS/MS analysis; format: ADME, cell-free; conditions: read-out: Stability
[12] = Downregulation of FKBP51 protein level in human LNCaP cells at 10 uM incubated for 48 hrs by Western blot analysis relative to control; format: functional
[13] = Cmax in ICR mouse at 2 mg/kg, iv measured by LC-MS/MS analysis; format: ADME, organism-based; design: dose 2 mg/kg, route iv; conditions: in vivo
LNCaP [14] = assay: Antitumor activity against human LNCaP cells xenografted in NOD SCID mouse assessed as inhibition of tumor volume at 20 to 60 mg/kg, po administered daily for 4 weeks; format: functional, organism-based; conditions: dose 20-60 mg/kg
RWPE-1 = assay: Cytotoxicity against human RWPE-1 cells assessed as reduction in cell viability incubated for 6 days by CCK8 assay; format: toxicity, cell-based; conditions: rwpe-1, 144 h, time 6 day
[15] = Stability in mouse plasma assessed as parent compound remaining measured after 30 mins by LC-MS/MS analysis; format: ADME, cell-free; conditions: read-out: Stability
LNCaP [16] = assay: Antitumor activity against human LNCaP cells xenografted in NOD SCID mouse assessed as tumor growth inhibition at 60 mg/kg, po administered daily for 4 weeks relative to control; format: functional; conditions: 672 h, read-out: TGI
[17] = Tmax in beagle dog at 1 mg/kg, iv measured by LC-MS/MS analysis; format: ADME, organism-based, Canis lupus familiaris; conditions: in vivo
VCaP [18] = assay: Antiproliferative activity against human VCaP cells assessed as reduction in cell viability incubated for 6 days by CCK-8 assay; format: functional, cell-based; conditions: 144 h
[19] = Metabolic stability in mouse liver microsomes assessed as half-life at 2 uM preincubated for 10 mins in the presence of NADPH followed by compound addition and measured after 60 mins by LC-MS/MS analysis; format: ADME, Microsome
[20] = Stability in mouse plasma assessed as parent compound remaining measured after 120 mins by LC-MS/MS analysis; format: ADME, cell-free; conditions: read-out: Stability
[21] = Metabolic stability in mouse liver microsomes assessed as parent compound remaining at 2 uM preincubated for 10 mins followed by compound addition and measured after 60 mins by LC-MS/MS analysis; format: ADME, Microsome; conditions: read-out: Stability
[22] = AUC(0 to t) in beagle dog at 5 mg/kg, po measured by LC-MS/MS analysis; format: ADME, organism-based, Canis lupus familiaris; design: dose 5 mg/kg, route po; conditions: in vivo
[23] = AUC(0 to t) in ICR mouse at 2 mg/kg, iv measured by LC-MS/MS analysis; format: ADME, organism-based; design: dose 2 mg/kg, route iv; conditions: in vivo
[24] = Half-life in ICR mouse at 10 mg/kg, po measured by LC-MS/MS analysis; format: ADME, organism-based; conditions: in vivo
LNCaP [25] = assay: Antiproliferative activity against human LNCaP cells assessed as reduction in cell viability incubated for 6 days by CCK-8 assay; format: functional, cell-based; conditions: 144 h
[26] = Toxicity in ICR mouse assessed as kidney damage at 20 to 60 mg/kg, po administered daily for 14 days; format: organism-based; conditions: in vivo, 336 h, dose 20-60 mg/kg, time 14 day
[27] = Oral bioavailability in ICR mouse at 10 mg/kg measured by LC-MS/MS analysis; format: ADME, organism-based; conditions: in vivo
[28] = Downregulation of TMPRSS2 protein level in human LNCaP cells at 10 uM incubated for 48 hrs by Western blot analysis relative to control; format: functional
PC-3 = assay: Antiproliferative activity against AR-independent human PC-3 cells assessed as reduction in cell viability at 10 uM incubated for 6 days by CCK-8 assay; format: functional, cell-based; conditions: time 6.0 day
LNCaP [29] = assay: Antitumor activity against human LNCaP cells xenografted in NOD SCID mouse assessed as tumor growth inhibition at 20 mg/kg, po administered daily for 4 weeks relative to control; format: functional; conditions: 672 h, read-out: TGI
[30] = Downregulation of TMPRSS2 protein level in human VCaP cells at 10 uM incubated for 48 hrs by Western blot analysis relative to control; format: functional
[31] = Stability in human plasma assessed as parent compound remaining measured after 45 mins by LC-MS/MS analysis; format: ADME, cell-free; conditions: read-out: Stability
VCaP [32] = assay: Induction of apoptosis in human VCaP cells assessed as caspase-3 cleavage at 5 to 10 uM incubated for 48 hrs by Western blot analysis; format: functional, cell-based; conditions: dose 5-10 µM
[33] = AUC(0 to t) in beagle dog at 1 mg/kg, iv measured by LC-MS/MS analysis; format: ADME, organism-based, Canis lupus familiaris; design: dose 1 mg/kg, route iv; conditions: in vivo
[34] = Tmax in ICR mouse at 2 mg/kg, iv measured by LC-MS/MS analysis; format: ADME, organism-based; conditions: in vivo
[35] = Metabolic stability in human liver microsomes assessed as parent compound remaining at 2 uM preincubated for 10 mins in the presence of NADPH followed by compound addition and measured after 60 mins by LC-MS/MS analysis; format: ADME, Microsome; conditions: read-out: Stability
[36] = Stability in human plasma assessed as parent compound remaining measured after 15 mins by LC-MS/MS analysis; format: ADME, cell-free; conditions: read-out: Stability
[37] = Half-life in ICR mouse at 2 mg/kg, iv measured by LC-MS/MS analysis; format: ADME, organism-based; conditions: in vivo
[38] = Stability in human plasma assessed as parent compound remaining measured after 120 mins by LC-MS/MS analysis; format: ADME, cell-free; conditions: read-out: Stability
LNCaP [39] = assay: Antiproliferative activity against AR-dependent human LNCaP cells assessed as reduction in cell viability at 3 to 10 uM incubated for 6 days by CCK-8 assay; format: functional, cell-based; conditions: dose 3-10 µM, time 6.0 day
[40] = Downregulation of FKBP51 protein level in human VCaP cells at 10 uM incubated for 48 hrs by Western blot analysis relative to control; format: functional

- remaining at 1 h, 2 µM [1]: 78.2%
- remaining at 0 min [5]: 100%
- Cmax [6]: 150 ng/mL
- clearance [7]: 9.9 mL/min/kg
- half-life at 2 µM [10]: 3.12 h
- remaining at 0.25 h [11]: 88%
- Cmax [13]: 782 ng/mL
- remaining at 0.5 h [15]: 90.3%
- Tmax [17]: 6 min
- IC50 (VCaP [18]): 5.59 µM
- half-life at 2 µM [19]: 3.12 h
- remaining at 2 h [20]: 91.2%
- remaining at 1 h, 2 µM [21]: 99.5%
- AUCt [22]: 1411 ng·h/mL
- AUC(0-t) [23]: 3020 ng·h/mL
- half-life [24]: 7.9 h
- IC50 (LNCaP [25]): 1.07 µM
- bioavailability [27]: 40.5%
- remaining at 0.75 h [31]: 93.9%
- AUCt [33]: 919 ng·h/mL
- Tmax [34]: 6 min
- remaining at 1 h, 2 µM [35]: 80.9%
- remaining at 0.25 h [36]: 92.2%
- half-life [37]: 8.2 h
- remaining at 2 h [38]: 87.3%
SMILES: CC(C)(c1ccc(OCC2CCN(CC3CCN(c4ccc5c(c4)C(=O)N(C4CCC(=O)NC4=O)C5=O)CC3)CC2)cc1)c1ccc(OC[C@H](O)CCl)cc1 (stereo partly drawn)
- Activity [2]: ~15%
- Activity (LNCaP [3]): Active
- Activity [4]: Non-Toxic
- Activity (CWR22R): Active
- Activity [8]: Non-Toxic
- Activity [9]: Non-Toxic
- Activity [12]: ~25%
- Activity (LNCaP [14]): Active
- Activity (RWPE-1): Non-Toxic
- inhibition in vivo at 60 mg/kg (LNCaP [16]): 76%
- Activity [26]: Non-Toxic
- Activity [28]: ~45%
- Activity (PC-3): inactive
- inhibition in vivo at 20 mg/kg (LNCaP [29]): 26%
- Activity [30]: ~40%
- Activity (VCaP [32]): Active
- Activity (LNCaP [39]): Active
- Activity [40]: ~25%
